Source: publication PMC7051184, “C9orf72 arginine-rich dipeptide repeat proteins disrupt karyopherin-mediated nuclear import” (eLife, 2020)

Assays:
Type in all cases: biochemical, human
Details in all cases: Fig 5-suppl 3C, normalized to untreated HEK on same membrane
importin α = assay: DPR aggregation assay and western blot, ImpA;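 note: RNA rows contain added 20 µg total HEK RNA while no-RNA rows lack it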
Experimental: (§1) Supernatant and pellet fractions (for all 5 DPRs, and control/buffer only) were prepared as in the nuclear transport assays, by adding 100 µM 10mers to 2.5 mg/ml HEK lysate in 100 µL TRB. Supernatants were boiled in Laemmli (BioRad) for 5 min. Pellets were boiled for 15 min followed by sonication in order to fully disperse aggregates for SDS-PAGE. Equal volumes of supernatant and pellet fractions were run on 4–12% Bolt Bis-Tris Plus gels (ThermoFisher), transferred to nitrocellulose membrane using an iBlot2 dry blotting system (ThermoFisher). Protein loading was analyzed by BLOT-Faststain (G-biosciences, St. Louis, MO), according to the manufacterers’ instructions. For immunodetection, membranes were blocked with 5% non-fat milk in TBST and probed by sequential incubation with the primary antibodies as detailed in the table below. Detection was by HRP-conjugated secondary antibodies/chemiluminescence using an ImageQuant LAS 4000 system (GE, Chicago, IL). To permit sequential probing of membranes without stripping, signals were quenched by incubation with prewarmed 30% H20_2 for 20 min ([Sennepin et al., 2009]). Band intensities were measured by ImageQuant software. For pellet vs. supernatant fractions, all were expressed as percent untreated control. For blots in Figure 1E, samples were run on 4–20% SDS PAGE minigels (ThermoFisher) and blotted to PVDF membranes (Immun-Blot PVDF, Bio-Rad) using the Bio-Rad TransBlot Turbo apparatus, and probed as above. The chemiluminescence signal was captured with a Bio-Rad ChemiDoc XRS+ digital imaging system.

RanGAP1 = assay: DPR aggregation assay and western blot, RanGAP1
Experimental: as §1

TDP-43 = assay: DPR aggregation assay and western blot, TDP-43
Experimental: as §1

RPS6 = assay: DPR aggregation assay and western blot, RPS6;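 note: RNA rows contain added 20 µg total HEK RNA while no-RNA rows lack it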
Experimental: as §1

Rps25 = assay: DPR aggregation assay and western blot, Rps25;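 note: RNA rows contain added 20 µg total HEK RNA while no-RNA rows lack it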
From the text: Supplement elife-51685-fig5-data1.xlsx, sheet "Figure 5-figure suppl 3" | column: Rps25

[1] = Pellet, no RNA (Untreated), blot 1
[2] = Pellet, no RNA (Untreated), blot 2
[3] = Supernatant, no RNA (Untreated), blot 1
[4] = Supernatant, no RNA (Untreated), blot 2

Question: For “GA10: Synthetic 10-mer GA dipeptide repeat with C-terminal lysine and cysteine (GAGAGAGAGAGAGAGAGAGAKC)”, which “ImpA band density, % untr control” value (importin α; Pellet, RNA, blot 1) is on record?
Answer: 93.99%

Question: And the “ImpA band density, % untr control” value (importin α; Pellet, RNA, blot 2)?
Answer: 102.25%

Question: And the “ImpA band density, % untr control” value (importin α; [1])?
Answer: 106.73%

Question: What about the “ImpA band density, % untr control” value (importin α; [2]) of the same substance?
Answer: 98.70%

Question: What about the “ImpA band density, % untr control” value (importin α; Supernatant, RNA, blot 1) of the same substance?
Answer: 83.82%

Question: What about the “ImpA band density, % untr control” value (importin α; Supernatant, RNA, blot 2) of the same substance?
Answer: 115.58%

Question: And the “ImpA band density, % untr control” value (importin α; [3])?
Answer: 82.83%

Question: And the “ImpA band density, % untr control” value (importin α; [4])?
Answer: 108.20%

Question: What about the “RanGAP1 band density, % untr control” value (RanGAP1; Pellet, RNA, blot 1) of the same substance?
Answer: 93.93%

Question: And the “RanGAP1 band density, % untr control” value (RanGAP1; Pellet, RNA, blot 2)?
Answer: 89.10%

Question: And the “RanGAP1 band density, % untr control” value (RanGAP1; [1])?
Answer: 87.31%

Question: And the “RanGAP1 band density, % untr control” value (RanGAP1; [2])?
Answer: 80.44%

Question: And the “RanGAP1 band density, % untr control” value (RanGAP1; Supernatant, RNA, blot 1)?
Answer: 83.26%

Question: What about the “RanGAP1 band density, % untr control” value (RanGAP1; Supernatant, RNA, blot 2) of the same substance?
Answer: 119.18%

Question: What about the “RanGAP1 band density, % untr control” value (RanGAP1; [3]) of the same substance?
Answer: 131.44%

Question: And the “RanGAP1 band density, % untr control” value (RanGAP1; [4])?
Answer: 105.30%

Question: And the “TDP43 band density, % untr control” value (TDP-43; Pellet, RNA, blot 1)?
Answer: 112.48%

Question: And the “TDP43 band density, % untr control” value (TDP-43; Pellet, RNA, blot 2)?
Answer: 99.51%

Question: What about the “TDP43 band density, % untr control” value (TDP-43; [1]) of the same substance?
Answer: 116.61%

Question: And the “TDP43 band density, % untr control” value (TDP-43; [2])?
Answer: 120.53%

Question: What about the “TDP43 band density, % untr control” value (TDP-43; Supernatant, RNA, blot 1) of the same substance?
Answer: 88.02%

Question: And the “TDP43 band density, % untr control” value (TDP-43; Supernatant, RNA, blot 2)?
Answer: 100.78%

Question: And the “TDP43 band density, % untr control” value (TDP-43; [3])?
Answer: 86.33%

Question: And the “TDP43 band density, % untr control” value (TDP-43; [4])?
Answer: 98.73%

Question: What about the “Rps6 band density, % untr control” value (RPS6; Pellet, RNA, blot 1) of the same substance?
Answer: 45.85%

Question: And the “Rps6 band density, % untr control” value (RPS6; Pellet, RNA, blot 2)?
Answer: 60.48%

Question: And the “Rps6 band density, % untr control” value (RPS6; [1])?
Answer: 113.52%

Question: What about the “Rps6 band density, % untr control” value (RPS6; [2]) of the same substance?
Answer: 119.87%

Question: And the “Rps6 band density, % untr control” value (RPS6; Supernatant, RNA, blot 1)?
Answer: 64.65%

Question: And the “Rps6 band density, % untr control” value (RPS6; Supernatant, RNA, blot 2)?
Answer: 73.01%

Question: What about the “Rps6 band density, % untr control” value (RPS6; [3]) of the same substance?
Answer: 90.06%

Question: And the “Rps6 band density, % untr control” value (RPS6; [4])?
Answer: 67.32%

Question: And the “Rps25 band density, % untr control” value (Rps25; Pellet, RNA, blot 1)?
Answer: 48.52%

Question: And the “Rps25 band density, % untr control” value (Rps25; Pellet, RNA, blot 2)?
Answer: 61.57%

Question: And the “Rps25 band density, % untr control” value (Rps25; [1])?
Answer: 84.83%

Question: What about the “Rps25 band density, % untr control” value (Rps25; [2]) of the same substance?
Answer: 128.35%

Question: And the “Rps25 band density, % untr control” value (Rps25; Supernatant, RNA, blot 1)?
Answer: 121.04%

Question: And the “Rps25 band density, % untr control” value (Rps25; Supernatant, RNA, blot 2)?
Answer: 82.85%

Question: And the “Rps25 band density, % untr control” value (Rps25; [3])?
Answer: 112.04%

Question: What about the “Rps25 band density, % untr control” value (Rps25; [4]) of the same substance?
Answer: 76.84%
